Laboratory results as given in publication PMC3975886, “Structural characteristics of an insect group I chitinase, an enzyme indispensable to moulting” (Acta Crystallographica Section D: Biological Crystallography, 2014).

These compounds were tested against OfChtI-CAD (Ostrinia furnacalis, UniProt Q2V6H4, E148Q) (assay: isothermal titration calorimetry, single-site model). Conditions: 50 mM HEPES pH 8.0, 303 K.
OfChtI-CAD, sequence (Q2V6H4 19-407, stated change not applied): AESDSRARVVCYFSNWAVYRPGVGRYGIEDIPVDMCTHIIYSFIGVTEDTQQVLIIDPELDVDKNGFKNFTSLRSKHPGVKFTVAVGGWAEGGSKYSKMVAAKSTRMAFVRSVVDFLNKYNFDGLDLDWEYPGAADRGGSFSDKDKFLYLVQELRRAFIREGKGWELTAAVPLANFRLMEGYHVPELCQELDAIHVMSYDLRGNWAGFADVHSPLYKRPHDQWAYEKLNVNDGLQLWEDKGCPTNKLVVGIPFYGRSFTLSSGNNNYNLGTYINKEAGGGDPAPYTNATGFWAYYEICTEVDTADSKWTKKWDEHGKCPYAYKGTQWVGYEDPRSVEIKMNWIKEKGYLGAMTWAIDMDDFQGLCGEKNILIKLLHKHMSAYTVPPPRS
Type: binding
From the text: isothermal titration calorimetry, single-site model on OfChtI-CAD
For CC(=O)N[C@H]1[C@H](O[C@H]2[C@H](O)[C@@H](NC(C)=O)C(O)O[C@@H]2CO)O[C@H](CO)[C@@H](O[C@@H]2O[C@H](CO)[C@@H](O[C@@H]3O[C@H](CO)[C@@H](O)[C@H](O)[C@H]3NC(C)=O)[C@H](O)[C@H]2NC(C)=O)[C@@H]1O (stereo partly drawn) [(GlcNAc)4], the Kd was 11.3 ± 1.5 µM. CC(=O)N[C@H]1[C@H](O[C@H]2[C@H](O)[C@@H](NC(C)=O)[C@H](O[C@H]3[C@H](O)[C@@H](NC(C)=O)C(O)O[C@@H]3CO)O[C@@H]2CO)O[C@H](CO)[C@@H](O[C@@H]2O[C@H](CO)[C@@H](O[C@@H]3O[C@H](CO)[C@@H](O)[C@H](O)[C@H]3NC(C)=O)[C@H](O)[C@H]2NC(C)=O)[C@@H]1O (stereo partly drawn) [(GlcNAc)5] gave a Kd of 2 ± 0.2 µM. Work on CC(=O)N[C@H]1[C@H](O[C@H]2[C@H](O)[C@@H](NC(C)=O)[C@H](O[C@H]3[C@H](O)[C@@H](NC(C)=O)C(O)O[C@@H]3CO)O[C@@H]2CO)O[C@H](CO)[C@@H](O[C@@H]2O[C@H](CO)[C@@H](O[C@@H]3O[C@H](CO)[C@@H](O[C@@H]4O[C@H](CO)[C@@H](O)[C@H](O)[C@H]4NC(C)=O)[C@H](O)[C@H]3NC(C)=O)[C@H](O)[C@H]2NC(C)=O)[C@@H]1O (stereo partly drawn) [(GlcNAc)6, N′,N′′,N′′′,N′′′′,N′′′′′, N′′′′′′-hexaacetylchitohexaose] yielded a Kd of 0.48 ± 0.09 µM.
